PMC8909834, “An Orally Bioavailable and Highly Efficacious Inhibitor of CDK9/FLT3 for the Treatment of Acute Myeloid Leukemia” (Cancers, 2022)
Read-outs that look alike come from different tables or passages of the source.

Tests used:
[1] = Drug concentration in plasma and tumor 4 h post final dose; format: in vivo, MV4-11 tumor-bearing mice; conditions: BALB/c nude (nu/nu), mouse, oral; for concentration at 4 h: 4 h post final dose
Experimental: To investigate the effect of CDDD11-8 on its targets in vivo, MV4-11 tumor-bearing mice (n = 3) were treated with the vehicle, CDDD11-8 (75 and 125 mg/kg), orally for 5 days. Four hours post final dose, tumor samples were collected and lysates prepared for western blot analysis (Figure 4C, Supplementary Figure S19). […] These were accompanied by changes in the levels of the proteins involved in cancer cell survival.
We also determined the concentration of CDDD11-8 in the plasma and tumor (Figure 4D, Supplementary Table S5). […] The tumor concentration from the 75 mg/kg dose was 2.5-times the plasma concentration. However, the plasma and tumor concentrations from 125 mg/kg were similar.

[2] = Maximum tolerated dose in non-tumor bearing mice; format: in vivo
Experimental: In vivo efficacy of CDDD11-8 against AML xenografts in mice. The maximum tolerated dose (MTD) of CDDD11-8 was determined in non-tumor bearing female BALB/c nude (nu/nu) mice (n = 3). […] Our proposed maximum dose of CDDD11-8 was 150 mg/kg once daily for seven days. […] All the animals received 28 doses of vehicle or CDDD11-8 at 75 or 125 mg/kg strength. […] The tumor regression was maintained over the dosing period. On day 29, the tumors in the 75 mg/kg treated group had recommenced growth to variable degrees (Supplementary Table S3). […] On day 29, one and three mice from the 75 and 125 mg/kg CDDD11-8 treated groups, respectively, had unmeasurable tumor size (zero tumor volume).

MV4-11 cells [3] = assay: Western blotting of cellular signaling pathways; format: cell-based
Experimental: (§1) Western blotting. Western blotting was performed as described previously. Briefly, cells were lysed after incubation with different concentrations of compounds or control (0.1% DMSO) at the indicated times, samples were denatured at 95 °C for 5 min, and proteins having different molecular weights within each sample were separated by electrophoresis (Bio-Rad, Hercules, CA, USA) on polyacrylamide gels (4–20%, Bio-Rad). Resolved proteins were electrophoretically transferred onto a PVDF membrane and blocked by incubating with 10% w/v non-fat powdered milk dissolved in 1 × Tris-buffered saline-tween 20 (TBST) for 1 h at room temperature prior to incubating overnight with primary antibodies at 4 °C with slight shaking. Chemiluminescence was detected with a ChemiDoc^TM gel imaging system after the membranes have been exposed to ECL substrates (GE Healthcare, PA, USA), and the Image Lab software (Bio-Rad) was used for image capture. The primary antibodies used were: β-Actin (Invitrogen, Cat MA515739, 1:5000), β-Tubulin (Cell Signaling Technology, Cat 2146, 1:1000), AKT (Cell Signaling Technology, Cat 9272, 1:1000), c-MYC (Cell Signaling Technology, Cat 5605, 1:1000), Caspase-3 (Cell Signaling Technology, Cat 9665, 1:1000), Cleaved PARP (Cell Signaling Technology, Cat 5625, 1:1000), ERK1/2 (p44/42 MAPK, Cell Signaling Technology, Cat 4695, 1:1000), GAPDH (Invitrogen, Cat PA1987, 1:1000), MCL-1 (Cell Signaling Technology, Cat 942965, 1:1000), PARP (Cell Signaling Technology, Cat 9532, 1:1000), Phospho-AKT (Ser473) (Cell Signaling Technology, Cat 9271, 1:1000), Phospho-ERK (Thr202/Tyr204) (Cell Signaling Technology, Cat 4370, 1:1000), Phospho-FLT3 (Tyr591) (Cell Signaling Technology, Cat 3461, 1:1000), Phospho-STAT5 (Tyr694) (Cell Signaling Technology, Cat 9359, 1:1000), RNAP II CTD (BioLegend (CA, USA), Cat 664906, 1:1000), RNAP II CTD Phospho-Ser2 (BioLegend, Cat 920204, 1:1000), RNAP II CTD Phospho-Ser5 (Abcam, Cat ab5408, 1:1000), STAT5 (Cell Signaling Technology, Cat 9363, 1:1000), and XIAP (Cell Signaling Technology, Cat 14334, 1:1000). Bands were quantified using ImageJ software (US National Institutes of Health, Bethesda, MD, USA).

MOLM-13 cells [4] = assay: Western blotting of cellular signaling pathways; format: cell-based; conditions: MOLM-13, 24 h, concentration-dependent
Experimental: as §1

MV4-11 cells [5] = assay: Detection of apoptosis (annexin V/PI assay); format: cell-based; conditions: MV4-11, 1 µM
Experimental: (§2) Detection of apoptosis and cell cycle analysis. Detection of apoptosis and cell cycle analysis were performed as described previously. Cells (1 × 10^5 cells/mL) were seeded into a six-well plate (Corning) and incubated overnight at 37 °C, 5% CO2 prior to incubation with different concentrations of CDDD11-8 or control (0.1% final DMSO concentration) for 6, 24, or 72 h. For washout experiments, cells were incubated with compounds for 6 h, then washed three times with 1 × PBS interspersed with centrifugation at 300× g for 5 min to remove compound. After incubation at 37 °C under 5% CO2, cells were centrifuged at 300× g for 5 min to form a pellet, washed with PBS, and incubated with Annexin V/PI (Becton Dickenson, Franklin Lakes, NJ, USA) for 15 min in the dark. For cell cycle analysis, cells were fixed with 70% ethanol (v/v, 4 °C) and incubated in the dark with cell cycle staining solution (50 µg/mL PI, 0.1 mg/mL RNase A, 0.05% Triton X-100) for 1.5 h. Samples were analyzed using a CytoFlex flow cytometer (Beckman Coulter, Brea, CA, USA). Data were analyzed with CytExpert software version 2.1 (Beckman Coulter, Brea, CA, USA).

MOLM-13 cells [6] = assay: Detection of apoptosis (annexin V/PI assay); format: cell-based; conditions: MOLM-13, 1 µM
Experimental: as §2

THP-1 cells = assay: Detection of apoptosis (annexin V/PI assay); format: cell-based; conditions: apoptosis seen at 1.5 µM and 24 and 72 h
Experimental: as §2

[7] = MV4-11, time-course, within 2 h

SMILES: Cc1cnc(N[C@H]2CC[C@H](N)CC2)nc1-c1cnc2ccc(-c3ccccc3)cn12 [CDDD11-8]
- concentration at 4 h ([1]; plasma, 75 mg/kg, 75 mg/kg orally 5 days, mouse 1, read-out: Plasma concentration): 490 ng/mL
- concentration at 4 h ([1]; plasma, 75 mg/kg, 75 mg/kg orally 5 days, mouse 2, read-out: Plasma concentration): 441 ng/mL
- concentration at 4 h ([1]; plasma, 75 mg/kg, 75 mg/kg orally 5 days, mouse 3, read-out: Plasma concentration): 1090 ng/mL
- concentration at 4 h ([1]; plasma, 125 mg/kg, 125 mg/kg orally 5 days, mouse 1, read-out: Plasma concentration): 1440 ng/mL
- concentration at 4 h ([1]; plasma, 125 mg/kg, 125 mg/kg orally 5 days, mouse 2, read-out: Plasma concentration): 2850 ng/mL
- concentration at 4 h ([1]; plasma, 125 mg/kg, 125 mg/kg orally 5 days, mouse 3, read-out: Plasma concentration): 1800 ng/mL
- concentration at 4 h ([1]; tumor, 75 mg/kg, 75 mg/kg orally 5 days, mouse 1, read-out: Tumor concentration): 2140 ng/g
- concentration at 4 h ([1]; tumor, 75 mg/kg, 75 mg/kg orally 5 days, mouse 2, read-out: Tumor concentration): 1780 ng/g
- concentration at 4 h ([1]; tumor, 75 mg/kg, 75 mg/kg orally 5 days, mouse 3, read-out: Tumor concentration): 1480 ng/g
- Kp at 4 h ([1]; tumor, 75 mg/kg, read-out: tumor concentration relative to plasma concentration): 2.5
- concentration at 4 h ([1]; tumor, 125 mg/kg, 125 mg/kg orally 5 days, mouse 1, read-out: Tumor concentration): 1680 ng/g
- concentration at 4 h ([1]; tumor, 125 mg/kg, 125 mg/kg orally 5 days, mouse 2, read-out: Tumor concentration): 2310 ng/g
- concentration at 4 h ([1]; tumor, 125 mg/kg, 125 mg/kg orally 5 days, mouse 3, read-out: Tumor concentration): 1850 ng/g
- MTD at 7 days ([2]; female, BALB/c nude (nu/nu), mouse, in vivo, oral, once daily for seven days): 150 mg/kg
- body weight loss ([2]; oral 200 mg/kg, one mouse after five days, the rest after seven days): > 15%
- clinical signs of toxicity / weight loss ([2]; up to oral 150 mg/kg once daily for 7 days): no overt clinical signs of toxicity or significant weight loss
- level of p-FLT3 Tyr591 (MV4-11 cells [3]; MV4-11): reduced
- expression of MCL-1 (MV4-11 cells [3]; MV4-11, 1 µM, 24 h): reduced to almost undetectable levels
- expression of XIAP (MV4-11 cells [3]; MV4-11, 1 µM, 24 h): reduced to almost undetectable levels
- expression of c-MYC (MV4-11 cells [3]; MV4-11, 0.3 and 1 µM, as early as 2 h): completely blocked
- reduction of p-RNAP II Ser2 level (MV4-11 cells [3]; [7]): approximately 20%
- reduction of p-RNAP II Ser5 level (MV4-11 cells [3]; [7]): approximately 20%
- phosphorylation of RNAP II CTD at Ser2 and Ser5 (MOLM-13 cells [4]): suppressed
- apoptotic (Annexin V-positive) cells (MV4-11 cells [5]; 6 h): 51%
- apoptotic cells after washout (MV4-11 cells [5]; 6 h then 24 h without compound): 28%
- apoptotic (Annexin V-positive) cells (MOLM-13 cells [6]; 6 h): 86%
- apoptotic cells after washout (MOLM-13 cells [6]; 6 h then 24 h without compound): 61%
- induction of apoptosis (THP-1 cells): less impact
